The results in this text go back to ChEMBL document CHEMBL4665663, “Anti-atherosclerosis effect of HS donors based on nicotinic acid and chlorfibrate structures” (Bioorg Med Chem, 2019).

Series [1] has as its system WI-38. In words: Cytotoxicity against human WI38 cells assessed as reduction in cell viability after 48 hrs by MTT assay. The settings on record: WI-38, 48 h. Format: cell-based. A general note: Tetrazolium assays rely on reduction of a dye to a coloured formazan, in cell work by metabolically active cells.
The nature of series [2]: Prodrug release in phosphate buffer containing L-cysteine assessed as H2S release by measuring H2S releasing half-life at 60 uM by methylene blue method. Format: ADME.
Series [3] concerns HUVEC. In words: Cytotoxicity against human HUVEC cells assessed as reduction in cell viability after 48 hrs by MTT assay. Format: cell-based.
Series [4] deals with H9c2. The series can be described thus: Cytotoxicity against rat H9c2 cells assessed as reduction in cell viability after 48 hrs by MTT assay. Format: cell-based. The settings on record: H9c2, 48 h.
For series [5], the system named is RAW264.7. In words: Cytotoxicity against mouse RAW264.7 cells assessed as reduction in cell viability after 48 hrs by MTT assay. The settings on record: RAW264.7, 48 h. Format: cell-based.
In series [6] the test system is RAW264.7. In words: Antioxidant activity in mouse RAW264.7 cells assessed as reduction in ox-LDL induced oxidative stress by measuring decrease in MDA level at 10 to 50 uM preincubated for 10 mins followed by ox-LDL stimulation and measured after 24 hrs. Format: functional, cell-based. The note with it: dose microM 10-50, time 10.0 min.
Series [7] has as its system RAW264.7. In words: Anti-atherosclerotic activity in mouse RAW264.7 cells assessed as decrease in ox-LDL induced intracellular lipid accumulation by measuring reduction in total cholesterol level at 10 to 50 uM preincubated for 10 mins followed by ox-LDL stimulation and measured after 24 hrs by colorimetric method. In kind it is functional, cell-based. The settings on record: dose microM 10-50, time 10.0 min.

For series [8], the system named is RAW264.7. The series can be described thus: Anti-atherosclerotic activity in mouse RAW264.7 cells assessed as decrease in ox-LDL induced intracellular lipid accumulation by measuring reduction in free cholesterol level at 10 to 50 uM preincubated for 10 mins followed by ox-LDL stimulation and measured after 24 hrs by colorimetric method. The settings on record: dose microM 10-50, time 10.0 min. Format: functional, cell-based.

The test system of series [9] is RAW264.7. In words: Inhibition of macrophage foam cell formation in mouse RAW264.7 cells assessed as reduction in ox-LDL induced red lipid droplets formation at 10 uM preincubated for 10 mins followed by ox-LDL stimulation and measured after 24 hrs by oil red O staining based inverted microscopy analysis. Format: functional.
The subject of series [10] is RAW264.7. In words: Antioxidant activity in mouse RAW264.7 cells assessed as reduction in ox-LDL induced oxidative stress by measuring increase in SOD level at 10 to 50 uM preincubated for 10 mins followed by ox-LDL stimulation and measured after 24 hrs. Format: functional, cell-based. The note with it: dose microM 10-50, time 10.0 min.
For series [11], the system named is RAW264.7. In words: Anti-inflammatory activity in mouse RAW264.7 cells assessed as decrease in ox-LDL induced inflammatory reaction by measuring increase in IL-10 production at 10 to 50 uM preincubated for 10 mins followed by ox-LDL stimulation and measured after 24 hrs. Format: functional, cell-based. The note with it: dose microM 10-50, time 10.0 min.
In series [12] the test system is RAW264.7. In words: Antioxidant activity in mouse RAW264.7 cells assessed as reduction in ox-LDL induced ROS accumulation at 10 uM preincubated for 10 mins followed by ox-LDL stimulation and measured after 24 hrs by DCFH-DA staining based fluorescence microscopic analysis. In kind it is functional, cell-based.
In series [13] the test system is RAW264.7. The series can be described thus: Anti-inflammatory activity in mouse RAW264.7 cells assessed as decrease in ox-LDL induced inflammatory reaction by measuring decrease in TNF-alpha production at 10 to 50 uM preincubated for 10 mins followed by ox-LDL stimulation and measured after 24 hrs. In kind it is functional, cell-based. The note with it: dose microM 10-50, time 10.0 min.

Series [14] relates to HUVEC. The series can be described thus: Cytotoxicity against human HUVEC cells assessed as reduction in cell viability at 10 to 100 uM by MTT assay. In kind it is cell-based. The settings on record: dose 10-100 µM.
Series [15] has as its system HUVEC. In words: Cytoprotective activity against ox-LDL induced cell damage in human HUVEC cells assessed as increase in cell viability at 50 to 100 uM preincubated for 10 mins followed by ox-LDL stimulation measured after 24 hrs by MTT assay. Format: functional, cell-based. The note with it: dose microM 50-100, time 10.0 min.

Activity calls are given as the source filed them. No cut-off for these calls is given here.

On to `Cc1ccc(NC(=S)OCCNC(=O)C(C)(C)Oc2ccc(Cl)cc2)cc1`, for which the IC50 in series [1] is above 800 µM; in series [3], 661 µM; in [4], 771 µM; in series [5] it was above 800 µM. For the same molecule, in series [2], the t1/2 is recorded as 1 min.

`Cc1cnc(C(=O)OCCCOC(=O)CCCCC2CCSS2)c[n+]1[O-]` (stereo not given): the IC50 in series [1], in [3], in series [4] and in series [5] was above 800 µM throughout. The t1/2 in series [2] is recorded as 19.8 min.

With `NC(=S)c1ccc(OC(=O)c2cccnc2)cc1`, the IC50 in series [1] is above 800 µM; in series [3], 683 µM; in [4], 754 µM; in series [5] it was above 800 µM. The t1/2 in series [2] amounted to 2.1 min.

In the case of `CCOC(=O)C(C)(C)Oc1ccc(Cl)cc1`, the result in [6], in [10] and in series [12] was inactive. Besides, the outcome in [7], in series [8], in series [11] and in series [13] was Active. Besides, the inhibition result in series [9] is “Active”.

For the molecule `CC(C)(Oc1ccc(Cl)cc1)C(=O)Oc1ccc(C(N)=S)cc1`, the IC50 in [1] is above 800 µM; in series [3], 755 µM; in series [4], 797 µM; in [5], above 800 µM. The t1/2 in [2] turned out to be 5.6 min.

For `COc1ccc(NC(=S)OCCNC(=O)C(C)(C)Oc2ccc(Cl)cc2)cc1`, the IC50 in [1] was 780 µM; in [3], 616 µM; in series [4] it was 747 µM; in [5] it was above 800 µM. The t1/2 in [2] worked out at 0.9 min.

For the molecule `CC(C)(Oc1ccc(Cl)cc1)C(=O)NCCOC(=S)Nc1ccc(F)cc1`, the IC50 in series [1] is above 800 µM; in series [3], 773 µM; in series [4] it was above 800 µM; in series [5] it was above 800 µM. In addition, in [2], the t1/2 amounted to 1.2 min.

As for `Cc1cnc(C(=O)Oc2ccc(C(N)=S)cc2)c[n+]1[O-]`, the IC50 is above 800 µM in series [1], 714 µM in [3], 780 µM in [4] and above 800 µM in [5]. For the same molecule, the t1/2 in series [2] was 3.9 min.

As to `COc1ccc(NC(=S)OCCNC(=O)c2cccnc2)cc1`, the IC50 in series [1] is 781 µM; in [3], 550 µM; in series [4] it was 694 µM; in [5], above 800 µM. Moreover, the t1/2 in series [2] is 0.8 min.

`O=C(NCCOC(=S)Nc1ccccc1)c1cccnc1`: the IC50 in series [1] is above 800 µM; in series [3] it was 724 µM; in series [4] it was above 800 µM; in [5] it was above 800 µM. Also, the t1/2 in series [2] is on record as 1.2 min.

`O=C(O)c1cccnc1`: the result in series [6], in [10] and in series [12] was inactive. In addition, the outcome in series [7], in series [8], in series [11] and in series [13] was Active. In [9], the inhibition entry was “Active”.

As for `CC(C)(Oc1ccc(Cl)cc1)C(=O)Oc1ccc(-c2cc(=S)ss2)cc1`, the IC50 in series [1] was 764 µM; in series [3], 616 µM; in series [4], 675 µM; in series [5], above 800 µM. Also, in series [2], the t1/2 was 4.2 min.

As to `CC(C)(Oc1ccc(Cl)cc1)C(=O)NCCOC(=S)Nc1ccccc1`, the IC50 in series [1] was above 800 µM; in series [3], 791 µM; in [4], above 800 µM; in series [5], above 800 µM. Further, in [2], the t1/2 is 1.4 min.

As to `O=C(NCCOC(=S)Nc1ccc(F)cc1)c1cccnc1`, the IC50 in [1] was above 800 µM; in [3], 692 µM; in series [4], above 800 µM; in series [5], above 800 µM. Moreover, the t1/2 in series [2] was 1.5 min.

Regarding `O=C(Oc1ccc(-c2cc(=S)ss2)cc1)c1cccnc1`, the IC50 in series [1] is 734 µM; in series [3], 562 µM; in [4], 627 µM; in series [5], above 800 µM. For the same molecule, the t1/2 in series [2] stood at 3.3 min.

`CC(C)(Oc1ccc(Cl)cc1)C(=O)NCCOC(=S)Nc1ccc([N+](=O)[O-])cc1Cl`: the IC50 is above 800 µM in series [1], 729 µM in series [3], above 800 µM in [4] and above 800 µM in series [5]. Moreover, the t1/2 in series [2] amounted to 1.7 min. The Activity result in series [14] is “Non-Toxic”. The result in series [15] was Active.

Take `O=C(NCCOC(=S)Nc1ccc([N+](=O)[O-])cc1Cl)c1cccnc1`: the IC50 in series [1] is above 800 µM; in series [3], 701 µM; in [4], above 800 µM; in [5] it was above 800 µM. In addition, the t1/2 in series [2] turned out to be 2.1 min. Moreover, the Activity result in series [14] was “Non-Toxic”. For the same molecule, the result in [15] was Active.

For the molecule `Cc1ccc(NC(=S)OCCNC(=O)c2cccnc2)cc1`, the IC50 in series [1] was above 800 µM; in [3] it was 567 µM; in [4] it was 726 µM; in series [5], above 800 µM. The t1/2 in series [2] turned out to be 0.9 min.

Broadly, the IC50 is the concentration at which inhibition is half-maximal.
